According to patent publication US7951359B2, “Compositions and methods for therapy or prevention of chemotherapy-induced neuropathy” (Merck Serono SA, priority 2004, dated 2011):

What was measured:
[1] = rodents; cited from earlier work
[2] = test system: vincristine induced neuropathy; test: Hot plate test in vincristine-treated rats; assay type: in vivo, rat
Protocol: The rat was placed inside a glass cylinder of 17 cm height and 21 cm diameter on a heating-plate maintained at 52° C. (Medite OTS 40, Microm, Francheville, Rhône, France). The animal behavior was observed, particularly the licking of a foot and the adjusted leap. The latency before licking a foot or before jumping to escape the heat (adjusted leap) was recorded. The time needed to feel the thermal pain is related to the thermal sensitivity and tends to increase when thermal sensitivity is altered.

[3] = test system: lung (SK-MES1) tumor cell line; test: Cell survival by acid phosphatase activity assay, SK-MES1; assay type: cell-based, human
Protocol: (§1) The human lung (SK-MES1) and breast (MCF7) tumor cell lines were obtained from ATCC. The cell lines were maintained in Dulbecco's MEM medium (Gibco; Invitrogen, Cergy-Pontoise, France, ref. 41965039) supplemented with 1% antibiotic/antimicotic mixture solution (Gibco, ref. 15240062), and 10% heat-inactivated foetal bovine serum (Gibco, ref. F7524, batch 92K3387). The cells were amplified in Nunc tissue culture flasks (80 cm2) in a humidified incubator at 37° C. with 5% CO2 in 95% air. Cultures were sub-cultured twice a week.
(§2) The enzymatic activity has been proven to be proportional to the number of living cells (Ueda et al.; 1994).
(§3) Three days after the last replication, tumor cells were seeded in 96 well-plates (TPP, VWR International, Fontenay-sous-bois, France) at a density of 1,500 cells (MCF7 line) or 3,000 cells (SK-MES1 line) per well, in a total volume of 100 μl/well and incubated overnight in a humidified incubator at 37° C. with 5% CO2 in 95% air. […] IL-6 (in buffer solution at 1.8 mg/ml, PH: 7) was immediately added at concentrations of 0, 3, 12, 50 or 200 ng/ml.
(§4) Four days after the initiation of the intoxication, acid phosphatase activity (Example 21) in each cell culture was assessed.
(§5) After removal of the culture medium, cells were rinsed with phosphate-buffered saline (PBS, Gibco, ref. 14190-094) and further incubated for 90 min at 37° C. in 100 μl of buffer containing 0.1 mol/l sodium acetate (pH 5.5), 0.1% Triton X100 (Sigma, ref. T9284) and 10 mmol/l p-nitrophenyl phosphate (Sigma, ref. N9389). Reaction was stopped by addition of 10 μl of 1 mol/l sodium hydroxide aqueous solution (Laboratoire de Produit Chimiques de la Robertsau, Strasbourg, France; ref. 28.252.293). Absorbance of the colored solution was measured at 405 nm in a microplate reader (Labsystems Multiskan Bichromatic, EST-LAB, Strasbourg, France).
(§6) The results were expressed as percentage of optical density of the control cell cultures. The heights of the columns represent mean±SEM of percentages of 5-6 wells from two independent cultures.

[4] = test system: human WiDr colon carcinoma; test: Human WiDr colon carcinoma tumor growth in nude mice; assay type: in vivo, mouse
Protocol: The following experiment was carried out to check potential drug interaction between IL-6 and the chemotherapeutic agent in vivo.
Balb/c nude mice are used since have proven to be susceptible host systems for the growth of human WiDr colon carcinoma tumor cells. WiDr cells were provided by the bank of the National Cancer Research Institute Genova-Italy. Cell species: human, tissue: colon, tumor: colon adenocarcinoma, accession number: ICLC HTL00003.
Tumor size was recorded twice a week for 4 weeks starting 4 days after cell inoculation.
Each Balb/c nude mice (about 20-25 g body weight) was inoculated subcutaneously (s.c.) with 10^7+5% WiDr cells/mouse (0.2 mL/mouse of cell suspension) on day 1.
A group administered with 0.02% mouse albumin (Sigma) in 40 mM phosphate buffer at pH=7.0, s.c., a group administered with 3.5 mg/kg Cis-platinum, i.p. (in 0.9% NaCl sterile solution for injection), three groups of rats each treated with IL-6 (in 0.02% mouse albumin in 40 mM phosphate buffer at pH=7.0), s.c. at 3, 10 or 30 μg/kg and three groups of rats treated with IL-6 either at 3, 10 or 30 μg/kg IL-6, s.c. in combination with cis-platinum 3.5 mg/kg, i.p.
IL-6 at […] was given s.c. daily (10 mL/kg) from day 4 up to day 18. […] Tumor size was recorded twice a week for 4 weeks starting 4 days after cell inoculation. […]

[5] = test system: vincristine induced neuropathy; test: Morphometric analysis of sciatic nerve in vincristine-treated rats; assay type: in vivo, rat
Protocol: Histomorphometric analyses were carried out as described in Example 18 at the completion of the experiments, to explore morphologic changes occurring in fiber and axon diameter and myelin thickness in rats treated with vincristine and in rats co-administrated with IL-6.
With vincristine, morphometric analysis was performed 2 week after the end of vincristine administration on 3 animals per group. The animals were anesthetized by IP injection of 100 mg/kg Imalgène 500®. A 5 mm segment of sciatic nerve was excised, fixed overnight with 4% glutaraldehyde (Sigma, L'Isle d'Abeau-Chesnes, France) in phosphate buffered saline (PBS) (pH=7.4) and maintained in 30% sucrose and stored at 4° C. until further processing. At the time of use, the nerve sample was post-fixed in 1% osmium tetroxide (Sigma, L'Isle d'Abeau-Chesnes, France) in PBS for 2 h, dehydrated in serial alcohol solution, and embedded in Epon. Embedded tissues were then placed at 70° C. during 3 days to allow polymerization of the tissue wax. Cross sections of 1.5 μm thick were performed and they were stained with a 1% toluidine blue solution (Sigma, L'Isle d'Abeau-Chesnes, France) for 2 min, dehydrated and mounted on Eukitt. Twelve sections per sample were examined using an optical microscope (Nikon, Tokyo, Japan) and analyzed using, a semi-automated digital image analysis software (Biocom, France). The fiber diameter (a), axon diameter (b), and myelin thickness (c) were measured as illustrated below.

[6] = test system: breast (MCF7) tumor cell line; test: Cell survival by acid phosphatase activity assay, MCF7; assay type: cell-based, human
Protocol: as §1, §2, §3, §4, §5, §6

[7] = IL-6 3, 12, 50 or 200 ng/ml, p>0.05
[8] = cisplatin (2.5 μM), carboplatin (25 μM), 4 days

| Molecule | active dose as thrombopoietic factor [1] | prevention of vincristine-induced nociception loss (hot plate) ([2]; IL-6 0.3, 1, 3, 10 μg/kg SC daily, 5 weeks) | protection from vincristine-induced nociception loss compared with 4-MC ([2]; IL-6 0.3-10 μg/kg SC vs 4-MC 10 μg/kg IP) | survival of vincristine or cisplatine treated cells in the presence of IL-6 [3, 7] | survival of carboplatin-intoxicated cells in the presence of IL-6 ([3]; IL-6 3, 12, 50 or 200 ng/ml, significant) | effect of taxol on cell survival with IL-6 ([3]; IL-6 3-200 ng/ml, p>0.05) | survival of cells intoxicated with carboplatin and taxol in the presence of IL-6 ([3]; p>0.05) | WiDr tumor growth ([4]; IL-6 alone 3, 10 and 30 μg/kg s.c. daily day 4 to 18) | decrease in axon diameter by vincristine ([5]; IL-6 0.3-10 μg/kg SC daily) | percentage of degenerated fibers in vincristine treated rats ([5]; IL-6 0.3-10 μg/kg SC daily) | vincristine-induced fiber shrinkage ([5]; IL-6 1-10 μg/kg SC daily) | vincristine-induced myelin loss ([5]; IL-6 1-10 μg/kg SC daily) | survival of vincristine or cisplatine or carboplatin treated cells in the presence of IL-6 [6, 7] | effect of taxol on cell survival with IL-6 ([6]; IL-6 3-200 ng/ml, p>0.05) | survival of cells intoxicated with carboplatin and taxol in the presence of IL-6 ([6]; p>0.05) | decrease in cell survival versus control [3, 8] | WiDr tumor growth ([4]; cisplatin 3.5 mg/kg i.p. days 4, 8, 12, 18, significant on days 18, 22, 25) | decrease in cell survival versus control [6, 8] |
| --- | --- | --- | --- | --- | --- | --- | --- | --- | --- | --- | --- | --- | --- | --- | --- | --- | --- | --- |
| IL-6: Recombinant human IL-6 produced in genetically engineered Chinese Hamster Ovary (CHO) cells | above 500 μg/kg | significantly prevented nociception | confers better protection that 4-MC | did not change significantly | decrease of survival | did not change the effect of taxol | remained unchanged | did not significantly affect the growth of the tumor | significantly reduced/prevented the decrease in axon diameter | decreased the percentage of degenerated fibers | prevented vincristine-induced fiber shrinkage | reduced/prevented vincristine-induced myelin loss | did not change significantly | did not change the effect of taxol | remained unchanged | – | – | – |
| N.N.[Cl][Pt][Cl] [cisplatin, Cis-dichlorodiamine platinum] | – | – | – | – | – | – | – | – | – | – | – | – | – | – | – | about 50% | reduce tumor growth | about 50% |
